Experiments:
Assay in all cases: Multigene assay (QuantiGene Plex 2.0), mouse MEF cell line
Assay type in all cases: cell-based
Settings in all cases: 6 hours post-compound treatment
GCLM = tested on: GCLM
Protocol: (§1) This assay used the QuantiGene Plex 2.0 Reagent System from Affymetrix. This assay combines the use of bDNA (branch DNA) and xMAP magnetic capture beads from Luminex Technologies to quantitatively and simultaneously detect multiple mRNA transcripts per well. The overall procedure was performed according to the QuantiGene Plex 2.0 Reagent System instruction manual from Affymetrix.
(§2) Cells were seeded at a density of 12,000 cells/well in 96-well plates with an overnight incubation at 37° C., 5% CO2. Cells were treated with serially diluted compounds in a 7-point dose dependent manner. Cell lysis with 50% [v/v] Panomics Lysis Mixture (Lysis Mixture+10 μl/ml 25 Proteinase K) was performed 6 hours post-compound treatment. Lysed cells were heated at 50° C. to ensure appropriate lysing and the plates were then frozen at −80° C. Cell lysates, thawed at room temperature on the day of the assay, were pooled with mouse 8-gene multiplex probe sets and with 8 different sets of magnetic capture beads (Luminex Technology, Austin, Tex.) in a 100 μl/well volume. Biomek FX was used at every liquid transfer step. The eight plates containing lysate-probe-bead mixtures were incubated at 54° C.±1° C. on a shaking platform for an overnight incubation in the dark (18-20 hours). The following day the hybridization plates were compressed by transferring the hybridized lysates into a single magnetic capture plate. The plate was kept on a magnet to hold the beads and then washed with Panomics Wash Buffer 2.0 on a BioTek ELx405 select plate washer to remove any unbound sample. This step was followed by serial hybridizations and washings of the bDNA pre-amplifier (1 hour, 50° C.), bDNA amplifier (1 hour, 50° C.), label probe (1 hour, 50° C.), and streptavidin-phycoerythrin (SAPE, 30 minutes, room temperature). (Zhang, A. et al. Small interfering RNA and gene expression analysis using a multiplex branched DNA assay without RNA purification. J Biomol Screen 10, 549-56 (2005)). The plate was then washed with SAPE wash buffer to remove unbound SAPE and each well was analyzed with the Luminex FlexMap3D (Luminex, Austin, Tex.). SAPE fluorescence measured from each bead was proportional to the number of mRNA transcripts captured by the beads (Zheng, Z., Luo, Y. & McMaster, G. K. Sensitive and quantitative measurement of gene expression directly from a small amount of whole blood. Clin Chem 52, 1294-302 (2006)). Fold changes in gene expression were obtained for each gene per well by normalizing the raw data first to the DMSO control and then to a housekeeping gene (TBP-TATA binding protein or Tub1-alpha-tubulin).

DDIT3 = tested on: DDIT3
Protocol: as §1, §2

BCL2 = tested on: BCL2
Protocol: as §1, §2

HMOX = tested on: HMOX
Protocol: as §1, §2

HspA5 = tested on: HspA5
Protocol: as §1, §2

HSPA1a = tested on: HSPA1a
Protocol: as §1, §2

TUB1 = tested on: TUB1
Protocol: as §1, §2

Row | Structure (SMILES) | GCLM gene induction (GCLM; Table 4a) | DDIT3 gene induction (DDIT3; Table 4a) | BCL2 gene induction (BCL2; Table 4b) | HMOX gene induction (HMOX; Table 4b) | HspA5 gene induction (HspA5; Table 4b) | HSPA1a gene induction (HSPA1a; Table 4b) | TUB1 gene induction (TUB1; Table 4a) | also measured
1 | Cc1ccsc1C1C(C#N)=C(N)Oc2[nH]nc(C(C)(C)C)c21 (stereo not shown) [drawing 29/CMe3/H/Me/S] | + (+ indicates a induction of greater than 2 fold) | − (− Indicates less than 2 fold induction) | − (− Indicates less than 2 fold induction) | + (+ indicates a induction of greater than 2 fold) | − (− Indicates less than 2 fold induction) | − (− Indicates less than 2 fold induction) | − (− Indicates less than 2 fold induction) | –
2 | CCCc1n[nH]c2c1C(c1ccc(C)o1)C(C#N)=C(N)O2 (stereo not shown) [drawing 29/(CH2)2Me/Me/H/O] | + (+ indicates a induction of greater than 2 fold) | − (− Indicates less than 2 fold induction) | − (− Indicates less than 2 fold induction) | + (+ indicates a induction of greater than 2 fold) | − (− Indicates less than 2 fold induction) | − (− Indicates less than 2 fold induction) | − (− Indicates less than 2 fold induction) | –
3 | COc1ccccc1C1C(C#N)=C(C)NC2=C1C(=O)CC(c1ccccc1)C2 (stereo not shown) [drawing 27/Me/CN/o-OMe/H] | – | – | – | – | – | – | – | GCLM gene induction (GCLM; Table 2a): − (− Indicates less than 2 fold induction); DDIT3 gene induction (DDIT3; Table 2a): − (− Indicates less than 2 fold induction); BCL2 gene induction (BCL2; Table 2b): − (− Indicates less than 2 fold induction); HMOX gene induction (HMOX; Table 2b): − (− Indicates less than 2 fold induction); HspA5 gene induction (HspA5; Table 2b): − (− Indicates less than 2 fold induction); HSPA1a gene induction (HSPA1a; Table 2b): + (+ indicates a induction of greater than 2 fold); TUB1 gene induction (TUB1; Table 2a): − (− Indicates less than 2 fold induction)
4 | COCC1=C(C(=O)OCC(C)C)C(c2ccc(F)cc2)C2=C(CC(c3cccs3)CC2=O)N1 (stereo not shown) [drawing 26/CH2OMe/COOCH2CHMe2/p-F] | – | – | – | – | – | – | – | GCLM gene induction (GCLM; Table 1a): − (− Indicates less than 2 fold induction); DDIT3 gene induction (DDIT3; Table 1a): + (+ indicates a induction of greater than 2 fold); BCL2 gene induction (BCL2; Table 1b): − (− Indicates less than 2 fold induction); HMOX gene induction (HMOX; Table 1b): + (+ indicates a induction of greater than 2 fold); HspA5 gene induction (HspA5; Table 1b): − (− Indicates less than 2 fold induction); HSPA1a gene induction (HSPA1a; Table 1b): − (− Indicates less than 2 fold induction); TUB1 gene induction (TUB1; Table 1a): − (− Indicates less than 2 fold induction)
5 | CC(C)(C)c1n[nH]c2c1C(c1cccs1)C(C#N)=C(N)O2 (stereo not shown) [drawing 29/CMe3/H/H/S] | + (+ indicates a induction of greater than 2 fold) | − (− Indicates less than 2 fold induction) | − (− Indicates less than 2 fold induction) | + (+ indicates a induction of greater than 2 fold) | − (− Indicates less than 2 fold induction) | − (− Indicates less than 2 fold induction) | − (− Indicates less than 2 fold induction) | –
6 | COc1ccc(C2CC(=O)C3=C(C2)NC(C)=C(C(=O)OCC(C)C)C3c2cccc(F)c2)cc1 (stereo not shown) [drawing 27/Me/COOCH2CHMe2/m-F/OMe] | – | – | – | – | – | – | – | GCLM gene induction (GCLM; Table 2a): + (+ indicates a induction of greater than 2 fold); DDIT3 gene induction (DDIT3; Table 2a): − (− Indicates less than 2 fold induction); BCL2 gene induction (BCL2; Table 2b): + (+ indicates a induction of greater than 2 fold); HMOX gene induction (HMOX; Table 2b): + (+ indicates a induction of greater than 2 fold); HspA5 gene induction (HspA5; Table 2b): − (− Indicates less than 2 fold induction); HSPA1a gene induction (HSPA1a; Table 2b): + (+ indicates a induction of greater than 2 fold); TUB1 gene induction (TUB1; Table 2a): − (− Indicates less than 2 fold induction)
7 | COCc1n[nH]c2c1C(c1cccs1)C(C#N)=C(N)O2 (stereo not shown) [drawing 29/CH2OMe/H/H/S] | + (+ indicates a induction of greater than 2 fold) | − (− Indicates less than 2 fold induction) | − (− Indicates less than 2 fold induction) | + (+ indicates a induction of greater than 2 fold) | − (− Indicates less than 2 fold induction) | − (− Indicates less than 2 fold induction) | − (− Indicates less than 2 fold induction) | –
8 | CCn1c2c(c(=O)[nH]c1=O)C(c1cccc3ccccc13)C1=C(N2)c2ccccc2C1=O (stereo not shown) [B] | – | – | – | – | – | – | – | GCLM gene induction (GCLM; Table 6): — (— Indicates less than 2 fold induction); DDIT3 gene induction (DDIT3; Table 6): + (+ indicates a induction of greater than 2 fold); BCL2 gene induction (BCL2; Table 6): — (— Indicates less than 2 fold induction); HMOX gene induction (HMOX; Table 6): + (+ indicates a induction of greater than 2 fold); HspA5 gene induction (HspA5; Table 6): — (— Indicates less than 2 fold induction); HSPA1a gene induction (HSPA1a; Table 6): + (+ indicates a induction of greater than 2 fold); TUB1 gene induction (TUB1; Table 6): — (— Indicates less than 2 fold induction)
9 | CC1=C(C(=O)OCC(C)C)C(c2ccccc2OC(C)C)C2=C(CC(c3ccccc3)CC2=O)N1 (stereo not shown) [drawing 27/Me/COOCH2CHMe2/o-OCHMe2/H] | – | – | – | – | – | – | – | GCLM gene induction (GCLM; Table 2a): − (− Indicates less than 2 fold induction); DDIT3 gene induction (DDIT3; Table 2a): + (+ indicates a induction of greater than 2 fold); BCL2 gene induction (BCL2; Table 2b): − (− Indicates less than 2 fold induction); HMOX gene induction (HMOX; Table 2b): − (− Indicates less than 2 fold induction); HspA5 gene induction (HspA5; Table 2b): − (− Indicates less than 2 fold induction); HSPA1a gene induction (HSPA1a; Table 2b): − (− Indicates less than 2 fold induction); TUB1 gene induction (TUB1; Table 2a): − (− Indicates less than 2 fold induction)
10 | Cc1n[nH]c2c1C(c1cccs1)C(C#N)=C(N)O2 (stereo not shown) [drawing 29/Me/H/H/S] | + (+ indicates a induction of greater than 2 fold) | − (− Indicates less than 2 fold induction) | − (− Indicates less than 2 fold induction) | + (+ indicates a induction of greater than 2 fold) | − (− Indicates less than 2 fold induction) | − (− Indicates less than 2 fold induction) | − (− Indicates less than 2 fold induction) | –
11 | N#CC1=C(N)Oc2[nH]nc(C34CC5CC(CC(C5)C3)C4)c2C1c1cccs1 (stereo not shown) [drawing 29/1-Adamantyl/H/H/S] | + (+ indicates a induction of greater than 2 fold) | − (− Indicates less than 2 fold induction) | − (− Indicates less than 2 fold induction) | + (+ indicates a induction of greater than 2 fold) | − (− Indicates less than 2 fold induction) | − (− Indicates less than 2 fold induction) | − (− Indicates less than 2 fold induction) | –
12 | CCCc1n[nH]c2c1C(C1CC=CCC1)C(C#N)=C(N)O2 (stereo not shown) | – | – | – | – | – | – | – | GCLM gene induction (GCLM; Table 5): + (+ indicates a induction of greater than 2 fold); DDIT3 gene induction (DDIT3; Table 5): — (— Indicates less than 2 fold induction); BCL2 gene induction (BCL2; Table 5): — (— Indicates less than 2 fold induction); HMOX gene induction (HMOX; Table 5): + (+ indicates a induction of greater than 2 fold); HspA5 gene induction (HspA5; Table 5): — (— Indicates less than 2 fold induction); HSPA1a gene induction (HSPA1a; Table 5): — (— Indicates less than 2 fold induction); TUB1 gene induction (TUB1; Table 5): — (— Indicates less than 2 fold induction)
13 | N#CC1=C(N)Oc2[nH]nc(-c3ccccn3)c2C1c1cccs1 (stereo not shown) [drawing 29/2-Pyridyl/H/H/S] | + (+ indicates a induction of greater than 2 fold) | − (− Indicates less than 2 fold induction) | − (− Indicates less than 2 fold induction) | + (+ indicates a induction of greater than 2 fold) | − (− Indicates less than 2 fold induction) | − (− Indicates less than 2 fold induction) | − (− Indicates less than 2 fold induction) | –
